Earlier results as cited in patent US20100166887A1, “DIBENZO[b,e][1,4]DIAZEPINE MODULATORS OF DOPAMINE RECEPTORS, SEROTONIN RECEPTORS, ADRENERGIC RECEPTORS, ACETYLCHOLINE RECEPTORS, AND/OR HISTAMINE RECEPTORS” (Auspex Pharmaceuticals, Inc., priority 2008, published 2010).

Target: human ether-a-gogo related gene (hERG) potassium channel (Homo sapiens, UniProt Q12809)
Conditions: Pearlstein et al., J. Med. Chem., 2003

Chain of human ether-a-gogo related gene (hERG) potassium channel (Q12809 whole entry): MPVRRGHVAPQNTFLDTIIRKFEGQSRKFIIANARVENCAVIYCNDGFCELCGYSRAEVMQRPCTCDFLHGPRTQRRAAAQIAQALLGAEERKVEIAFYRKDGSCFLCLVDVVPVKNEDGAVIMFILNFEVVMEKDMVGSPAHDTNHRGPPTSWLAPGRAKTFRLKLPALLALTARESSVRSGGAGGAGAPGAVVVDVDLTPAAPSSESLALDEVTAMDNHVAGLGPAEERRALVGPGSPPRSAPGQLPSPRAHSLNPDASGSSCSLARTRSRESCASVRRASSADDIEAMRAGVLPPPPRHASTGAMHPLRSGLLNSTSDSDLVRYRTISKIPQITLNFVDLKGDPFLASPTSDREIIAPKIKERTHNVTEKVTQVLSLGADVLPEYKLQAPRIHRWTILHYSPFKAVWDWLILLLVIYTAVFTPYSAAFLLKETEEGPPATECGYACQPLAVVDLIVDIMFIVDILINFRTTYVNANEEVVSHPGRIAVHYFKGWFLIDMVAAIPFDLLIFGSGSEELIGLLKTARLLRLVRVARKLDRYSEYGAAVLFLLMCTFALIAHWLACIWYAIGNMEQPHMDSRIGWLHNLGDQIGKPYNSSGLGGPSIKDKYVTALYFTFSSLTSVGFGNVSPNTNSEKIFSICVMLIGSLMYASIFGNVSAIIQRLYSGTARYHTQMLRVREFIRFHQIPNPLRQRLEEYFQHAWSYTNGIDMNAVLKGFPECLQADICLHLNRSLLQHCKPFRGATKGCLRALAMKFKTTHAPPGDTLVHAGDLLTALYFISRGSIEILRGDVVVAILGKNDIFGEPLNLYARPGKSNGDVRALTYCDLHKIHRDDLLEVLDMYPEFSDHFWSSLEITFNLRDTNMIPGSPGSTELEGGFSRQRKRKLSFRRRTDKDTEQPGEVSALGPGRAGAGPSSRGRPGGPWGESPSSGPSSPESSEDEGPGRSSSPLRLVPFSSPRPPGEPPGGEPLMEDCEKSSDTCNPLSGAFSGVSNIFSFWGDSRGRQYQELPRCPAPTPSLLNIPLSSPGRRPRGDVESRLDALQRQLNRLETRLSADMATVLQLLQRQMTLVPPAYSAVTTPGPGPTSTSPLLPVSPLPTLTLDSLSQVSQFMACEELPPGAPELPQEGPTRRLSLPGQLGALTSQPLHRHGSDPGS

## Clc1ccc2c(c1)N=C(N1CCNCC1)c1ccccc1N2 [N-desmethyl clozapine, 8-Chloro-11-(4-piperazino)-5H-dibenzo[b,e][1,4]diazepine]
  inhibition of the hERG potassium channel: inhibits
